# Test results: the supplement of paper PMC10883282
# Columns and labels:
# Test in all cases: standardised AUC of viability dose-response curve (72 h) (fraction (0-1)); higher = less growth inhibition (more resistant)
# KHOS-NP = test system: KHOS-NP
# Outline: (§1)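 Viability of sarcoma cell lines was read with ATPLite after 72 h of triplicate treatment in 384-well plates with 2.5 µl of compound from a compound-plate series of 10 mM to 0.0002 mM. Viability was scaled 1 (full) to 0 (none) and fitted with a four-parameter log-logistic model for each drug and cell line. The reported standardised area under the dose-response curve in log-dose space comes from a modified drexplorer computeAUC, where 1 is no response and 0 is full response.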
# SYO-1 = test system: SYO-1
# Outline: as §1
# SK-ES-1 = test system: SK-ES-1
# Outline: as §1
# SK-LMS-1 = test system: SK-LMS-1
# Outline: as §1
# MES-SA = test system: MES-SA
# Outline: as §1
# G401 = test system: G401
# Outline: as §1
# A204 = test system: A204
# Outline: as §1
# SW684 = test system: SW684
# Outline: as §1
# KHOS-240S = test system: KHOS-240S
# Outline: as §1
# SW982 = test system: SW982
# Outline: as §1
# VA-ES-BJ = test system: VA-ES-BJ
# Outline: as §1
# SW1353 = test system: SW1353
# Outline: as §1
# SW872 = test system: SW872
# Outline: as §1
# HT1080 = test system: HT1080
# Outline: as §1
# RD = test system: RD
# Outline: as §1
# HS729 = test system: HS729
# Outline: as §1
# RD-ES = test system: RD-ES
# Outline: as §1
Compound,standardised AUC (KHOS-NP),standardised AUC (SYO-1),standardised AUC (SK-ES-1),standardised AUC (SK-LMS-1),standardised AUC (MES-SA),standardised AUC (G401),standardised AUC (A204),standardised AUC (SW684),standardised AUC (KHOS-240S),standardised AUC (SW982),standardised AUC (VA-ES-BJ),standardised AUC (SW1353),standardised AUC (SW872),standardised AUC (HT1080),standardised AUC (RD),standardised AUC (HS729),standardised AUC (RD-ES)
O=C(/C=C\n1cnc(-c2cc(C(F)(F)F)cc(C(F)(F)F)c2)n1)NNc1cnccn1 [SELINEXOR],0.655,0.596,0.5,0.642,0.652,0.706,0.672,0.847,0.612,0.649,0.625,0.822,0.781,0.714,0.721,0.773,0.751
CCS(=O)(=O)N1CC(CC#N)(n2cc(-c3ncnc4[nH]ccc34)cn2)C1 [BARICITINIB],0.986,0.985,1,0.985,0.972,0.995,0.962,0.99,0.981,0.99,0.997,0.987,0.992,0.989,1,0.977,1
CS(=O)(=O)CCNCc1ccc(-c2ccc3ncnc(Nc4ccc(OCc5cccc(F)c5)c(Cl)c4)c3c2)o1 [LAPATINIB],0.99,0.924,0.928,0.938,0.924,0.991,0.915,0.989,0.927,0.94,0.966,0.941,0.936,0.99,0.938,0.952,0.995
CN(C)C/C=C/C(=O)Nc1cc2c(Nc3ccc(F)c(Cl)c3)ncnc2cc1O[C@H]1CCOC1 [AFATINIB],0.939,0.795,0.745,0.837,0.807,0.838,0.733,0.85,0.846,0.759,0.825,0.729,0.819,0.926,0.801,0.849,0.823
